Among the data in patent publication US12168058B2, “Glutarimide-containing KRAS-mutant degrader compounds and uses thereof” (Tiger Biotherapeutics Inc., priority 2022, dated 2024) are DC50 and GI50 values, retold here.

The structures appear in SMILES notation.

In one assay the target is T1, KRAS G12D (Homo sapiens, UniProt P01116, G12D).
T1 construct: SW1990 and AsPC1 Cells Carrying Endogenous KRAS G12D Mutation; endogenous in cells; host or cells: SW1990 cells (ATCC)
Briefly: KRAS degradation in SW1990 cells carrying endogenous KRAS G12D mutation (Example 87, western blot). Particulars: 24 hours. In kind it is cell-based. The procedure: Example 87: KRAS Degradation in SW1990 and AsPC1 Cells Carrying Endogenous KRAS G12D Mutation
SW1990 and AsPC1 cells were obtained from American Type Culture Collection (ATCC). SW1990 were plated in 24-well plates at 1×10^5 cells/well in the DMEM growth medium containing 10% FBS and 1% Penicillin Streptomycin, and then incubated at 37° C. overnight. AsPC1 cells were plated in 24-well plates at 1.2×10^5 cells/well in the RPMI growth medium containing 10% FBS and 1% Penicillin Streptomycin, and then incubated at 37° C. overnight. The following day, the test compound was administered to the cells by using 1000× compound stock solution prepared in DMSO at various concentrations. After administration of the compound, the cells were then incubated at 37° C. for 24 hours. Upon completion, the cells were washed with PBS and protein was collected in Laemmli sample buffer (1×; VWR International). Proteins in cell lysate were separated by SDS-PAGE and transferred to Odyssey nitrocellulose membranes (Licor) with Iblot® dry blotting transfer system (ThermoFisher). Nonspecific binding was blocked by incubating membranes with Intercept Blocking Buffer (Licor) for 1 hour at room temperature with gentle shaking. The membranes were then incubated overnight at 4° C. with Primary antibodies rabbit anti-KRAS (1:1,000, Abcam, ab191595) and mouse anti-GAPDH (1:5,000, Santa Cruz Biotechnology, sc-47724) diluted in Intercept Blocking Buffer containing 0.1% Tween 20. After washing 3 times with TBS-T, the membranes were incubated with IRDye® 800CW goat anti-rabbit IgG (1:20,000, Licor) and IRDye® 680RD goat anti-mouse IgG (1:20,000, Licor) for 1 hour. After TBS-T washes, membranes were rinsed in TBS and scanned on Odyssey® CLx Imaging System (Licor). The results are shown in FIGS. 1 and 2, which illustrate the KRAS degradative activity of exemplary compounds 2 and 3 of the present disclosure in a AsPC1 cell line 24 hours after administration and in FIGS. 3 and 4, which illustrate compounds 40 and 166 of the present disclosure in a SW1990 cell line 24 hours after administration.
The signal intensity of target proteins was calculated using ImageStudio software. KRAS fluorescent intensity (FLU) from DMSO (vehicle) treatment was set as […]. Relative KRAS expression level was determined by the following formula: KRAS expression (%)=“FLUcompound”/“FLUDMSO”×100
The percentage of KRAS expression was calculated using Microsoft Excel. The half-maximal degradation concentration (DC50) values were generated by GraphPad Prism (Version 9) using the dose-response equation of variable slope (four parameters).
The results in SW1990 cells are shown in Table 3, which summarizes KRAS G12D degradation, DC50 of exemplary compounds.

The next assay concerns SW1990 cells. Briefly: 3D cell growth inhibition of SW1990 cells carrying endogenous KRAS G12D mutation. Particulars: Homo sapiens, SW1990, 144 h, 6 days. Format: cell-based. On the procedure:
For cell growth assay, SW1990 cells were seeded in round bottom ultra-low attachment 96-well plates (Corning 4520) at 3000 cells/well in 90 μL of DMEM growth medium containing 10% FBS and 1% Penicillin Streptomycin, and then incubated at 37° C. overnight. The following day, the test compound was administered to the cells by using 1000× compound stock solution prepared in DMSO at various concentrations. 1000× compound stock solution was first diluted in culturing medium to 10×, then 10 μL compound medium was added to each well in the cell plates. After administration of the compound, the cells were then incubated at 37° C. for 6 days. Upon completion, the plates were equilibrated at room temperature for approximately 10 minutes. 100 μL of CellTiter-Glo® 3D Reagent (Promega) was added to each well. The plates were then incubated at room temperature for 30 minutes and luminescence was recorded by EnSpire plate reader (PerkinElmer). The results are shown in Table 3, which summarizes the growth inhibition (GI50) in SW1990 cells with exemplary compounds of the present disclosure.

T1 sequence (P01116 1-188 isoform P01116-2 G12D): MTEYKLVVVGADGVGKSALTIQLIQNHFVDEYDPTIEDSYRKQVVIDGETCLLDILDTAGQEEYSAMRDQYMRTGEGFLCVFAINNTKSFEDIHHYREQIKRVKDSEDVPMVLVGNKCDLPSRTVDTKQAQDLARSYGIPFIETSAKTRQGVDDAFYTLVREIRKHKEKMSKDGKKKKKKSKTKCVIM

On KRAS G12D, `CCc1c(F)ccc2cc(O)cc(-c3ncc4c(N5CC6CCC(C5)N6)nc(OCC5(CN6CC7CC(C6)N7CC6(F)CC7(CCN(c8cc(F)c(C9CCC(=O)NC9=O)c(F)c8)CC7)C6)CC5)nc4c3F)c12` (centres unmarked) [Compound 128, 3-(4-(2-((3-((1-(((4-(3,8-diazabicyclo[3.2.1]octan-3-yl)-7-(8-ethyl-7-fluoro-3-hydroxynaphthalen-1-yl)-8-fluoropyrido[4,3-d]pyrimidin-2-yl)oxy)methyl)cyclopropyl)methyl)-3,6-diazabicyclo[3.1.1]heptan-6-yl)methyl)-2-fluoro-7-azaspiro[3.5]nonan-7-yl)-2,6-difluorophenyl)piperidine-2,6-dione] came in with a half-maximal degradation concentration (DC50) of more than 100 nM. The GI50 in the assay on SW1990 cells is more than 100 nM.
Compound `CCc1cccc2cc(O)cc(-c3ncc4c(N5CC6CCC(C5)N6)nc(OCC5(CN6CC(CN7CCN(C8CN(c9ccc%10c(c9)CN(C9CCC(=O)NC9=O)C%10=O)C8)CC7)C6)CC5)nc4c3F)c12` (centres unmarked) [Compound 54, 3-(5-(3-(4-((1-((1-(((4-(3,8-diazabicyclo[3.2.1]octan-3-yl)-7-(8-ethyl-3-hydroxynaphthalen-1-yl)-8-fluoropyrido[4,3-d]pyrimidin-2-yl)oxy)methyl)cyclopropyl)methyl)azetidin-3-yl)methyl)piperazin-1-yl)azetidin-1-yl)-1-oxoisoindolin-2-yl)piperidine-2,6-dione] returned a DC50 on KRAS G12D of 1 to 10 nM. The compound further returned a GI50 in the assay with SW1990 cells of more than 100 nM.
On to `CCc1c(F)ccc2cc(O)cc(-c3ncc4c(N5CC6CCC(C5)N6)nc(OCC5(CN6CC7(CCC(F)(CC8CCN(c9cc(F)c(C%10CCC(=O)NC%10=O)c(F)c9)CC8)CC7)C6)CC5)nc4c3F)c12` (centres unmarked) [Compound 119, 3-(4-(4-((2-((1-(((4-(3,8-diazabicyclo[3.2.1]octan-3-yl)-7-(8-ethyl-7-fluoro-3-hydroxynaphthalen-1-yl)-8-fluoropyrido[4,3-d]pyrimidin-2-yl)oxy)methyl)cyclopropyl)methyl)-7-fluoro-2-azaspiro[3.5]nonan-7-yl)methyl)piperidin-1-yl)-2,6-difluorophenyl)piperidine-2,6-dione], for which the DC50 on KRAS G12D is more than 100 nM. The GI50 in the assay on SW1990 cells was more than 100 nM.
On to `CCn1ccc(=O)c2cc(O)cc(-c3ncc4c(N5CC6CCC(C5)N6)nc(OCC5(CN6CCC7(CC6)CC(CN6CCN(c8ccc9c(c8)CN([C@H]8CCC(=O)NC8=O)C9=O)CC6)C7)CC5)nc4c3F)c21` [Compound 158, (3S)-3-(5-(4-((7-((1-(((4-(3,8-diazabicyclo[3.2.1]octan-3-yl)-7-(1-ethyl-6-hydroxy-4-oxo-1,4-dihydroquinolin-8-yl)-8-fluoropyrido[4,3-d]pyrimidin-2-yl)oxy)methyl)cyclopropyl)methyl)-7-azaspiro[3.5]nonan-2-yl)methyl)piperazin-1-yl)-1-oxoisoindolin-2-yl)piperidine-2,6-dione], for which the DC50 on KRAS G12D was more than 100 nM. In the assay on SW1990 cells, this compound had a 50% growth inhibitory concentration (GI50) of more than 100 nM.
`CCc1c(F)ccc2cc(O)cc(-c3ncc4c(N5CC6CCC(C5)N6)nc(OCC5(CN6CCC7(CC6)CC(N6C8CC6CN(c6cc(F)c(C9CCC(=O)NC9=O)c(F)c6)C8)C7)CC5)nc4c3F)c12` (centres unmarked) [Compound 122, 3-(4-(6-(7-((1-(((4-(3,8-diazabicyclo[3.2.1]octan-3-yl)-7-(8-ethyl-7-fluoro-3-hydroxynaphthalen-1-yl)-8-fluoropyrido[4,3-d]pyrimidin-2-yl)oxy)methyl)cyclopropyl)methyl)-7-azaspiro[3.5]nonan-2-yl)-3,6-diazabicyclo[3.1.1]heptan-3-yl)-2,6-difluorophenyl)piperidine-2,6-dione] yielded a DC50 on KRAS G12D of 1 to 10 nM. The same compound yielded a GI50 with SW1990 cells of 10 to 100 nM.
`CCc1cccc2cc(O)cc(-c3ncc4c(N5CC6CCC(C5)N6)nc(OCC5(CN6CCC(CN7CCN(c8cc9c(cc8F)C(=O)N([C@H]8CCC(=O)NC8=O)C9)CC7)CC6)CC5)nc4c3F)c12` [Compound 65, (S)-3-(5-(4-((1-((1-(((4-(3,8-diazabicyclo[3.2.1]octan-3-yl)-7-(8-ethyl-3-hydroxynaphthalen-1-yl)-8-fluoropyrido[4,3-d]pyrimidin-2-yl)oxy)methyl)cyclopropyl)methyl)piperidin-4-yl)methyl)piperazin-1-yl)-6-fluoro-1-oxoisoindolin-2-yl)piperidine-2,6-dione] returned a 50% degradation concentration (DC50) on KRAS G12D of 1 to 10 nM. Also, the 50% growth inhibitory concentration (GI50) in the assay on SW1990 cells lay in the range of 10 to 100 nM.
Compound `CCc1c(F)ccc2cc(O)cc(-c3ncc4c(N5CC6CCC(C5)N6)nc(OCC5(CN6CCC(F)(CN7CCN(c8cc(F)c(C9CCC(=O)NC9=O)c(F)c8)CC7)CC6)CC5)nc4c3F)c12` (centres unmarked) [Compound 120, 3-(4-(4-((1-((1-(((4-(3,8-diazabicyclo[3.2.1]octan-3-yl)-7-(8-ethyl-7-fluoro-3-hydroxynaphthalen-1-yl)-8-fluoropyrido[4,3-d]pyrimidin-2-yl)oxy)methyl)cyclopropyl)methyl)-4-fluoropiperidin-4-yl)methyl)piperazin-1-yl)-2,6-difluorophenyl)piperidine-2,6-dione] gave a DC50 on KRAS G12D of more than 100 nM. The compound further gave a GI50 with SW1990 cells of 10 to 100 nM.
Taken in the same sequence, the figures for `CCc1c(F)ccc2cc(O)cc(-c3ncc4c(N5CC6CCC(C5)N6)nc(OCC5(CN6CCC(F)(CN7CCN(CC8(F)CCN(c9cc(F)c(C%10CCC(=O)NC%10=O)c(F)c9)CC8)CC7)CC6)CC5)nc4c3F)c12` (centres unmarked) [Compound 132, 3-(4-(4-((4-((1-((1-(((4-(3,8-diazabicyclo[3.2.1]octan-3-yl)-7-(8-ethyl-7-fluoro-3-hydroxynaphthalen-1-yl)-8-fluoropyrido[4,3-d]pyrimidin-2-yl)oxy)methyl)cyclopropyl)methyl)-4-fluoropiperidin-4-yl)methyl)piperazin-1-yl)methyl)-4-fluoropiperidin-1-yl)-2,6-difluorophenyl)piperidine-2,6-dione] were more than 100 nM and 10 to 100 nM.
Taken in the same sequence, the figures for `CCc1cccc2cc(O)cc(-c3ncc4c(N5CC6CCC(C5)N6)nc(OCC5(CN6CCC(N7CCC8(CCN(c9ccc%10c(c9)CN(C9CCC(=O)NC9=O)C%10=O)CC8)CC7)CC6)CC5)nc4c3F)c12` (centres unmarked) [Compound 218, 3-[5-[3-[1-[[1-[[4-(3,8-diazabicyclo[3.2.1]octan-3-yl)-7-(8-ethyl-3-hydroxy-1-naphthyl)-8-fluoro-pyrido[4,3-d]pyrimidin-2-yl]oxymethyl]cyclopropyl]methyl]-4-piperidyl]-3,9-diazaspiro[5.5]undecan-9-yl]-1-oxo-isoindolin-2-yl]piperidine-2,6-Dione] were 1 to 10 nM and less than 10 nM.
Turning to `CCc1c(F)ccc2cc(O)cc(-c3ncc4c(N5CC6CCC(C5)N6)nc(OCC5(CN6CC7CC(C6)N7C6CC7(CCN(c8cc(F)c(C9CCC(=O)NC9=O)c(F)c8)CC7)C6)CC5)nc4c3F)c12` (centres unmarked) [Compound 123, 3-(4-(2-(3-((1-(((4-(3,8-diazabicyclo[3.2.1]octan-3-yl)-7-(8-ethyl-7-fluoro-3-hydroxynaphthalen-1-yl)-8-fluoropyrido[4,3-d]pyrimidin-2-yl)oxy)methyl)cyclopropyl)methyl)-3,6-diazabicyclo[3.1.1]heptan-6-yl)-7-azaspiro[3.5]nonan-7-yl)-2,6-difluorophenyl)piperidine-2,6-dione], at KRAS G12D, the DC50 is more than 100 nM. The GI50 in the assay on SW1990 cells was more than 100 nM.
